# Measurements taken from patent US9242939B2, “Compositions and methods for the treatment of respiratory disorders” (CELLIX BIO PRIVATE LIMITED, priority 2012, dated 2016).
# Key:
# Type in all cases: in vivo, Wistar-Kyoto (WKY) rats
# [1] = tested on: CCI rats; experiment: Mechanical allodynia in CCI (sciatic nerve ligation) neuropathic pain rats; settings: 15 mg/kg DM or 15 mg/kg equivalent of DM, intraperitoneally once daily for a week from day 8 after CCI; examined at end of one-week treatment; compared with corresponding baseline
# Procedure: (§1) Adult male WKY rats weighing 200-250 g. Rats were housed individually in each cage and the experiments started at least three days after their arrival. The surgical procedure was performed under pentobarbital anesthesia (50 mg/kg, intraperitoneally). CCI rats were produced by loosely ligating the common sciatic nerve on one side according to the method. Briefly, the right sciatic nerve was exposed in themid-thigh and separated from the adjacent tissue. Four loose ligatures using 4-0 chromic gut sutures were made around the dissected nerve with a 1.0-1.5 mm interval between each pair of ligatures. The skin wound was closed using stainless steel pins. In sham rats, the same surgical procedure was followed except for nerve ligation. DM and formula I (1-1) were diluted in 10% DMSO. The MDSO (10%) was also used for vehicle control.
# (§2) The drugs DM (15 mg/kg for DM) or the formula I (1-1) (15 mg/kg equivalent of DM) was given intraperitoneally once daily for a week, beginning in the second week after CCI (i.e., day 8 after CCI).
# [2] = tested on: CCI rats; experiment: Thermal hyperalgesia in CCI (sciatic nerve ligation) neuropathic pain rats; settings: 15 mg/kg DM or 15 mg/kg equivalent of DM, intraperitoneally once daily for a week from day 8 after CCI; examined on day 15 after CCI; compared with corresponding baseline
# Procedure: as §1, §2
# [3] = tested on: CCI rats; experiment: Motor deficits or sedation judged by gait and overall appearance; settings: 15 mg/kg DM or equivalent, intraperitoneally once daily for a week
# Procedure: as §2
SMILES,reducing mechanical allodynia [1],reducing thermal hyperalgesia [2],motor deficits or sedation [3]
"COc1ccc2c(c1)[C@]13CCCC[C@@H]1[C@H](C2)N(C)CC3 [DM, Dextromethorphan]",effective only in reducing mechanical allodynia,only marginally effective,no motor deficits or sedation
CN1CC[C@@]23CCCC[C@@H]2[C@@H]1Cc1ccc(OC(=O)CCCCCC[C@]2(C)CCSS2)cc13 [formula I (1-1)],significantly improved mechanical allodynia,reduced thermal hyperalgesia,no motor deficits or sedation
